What all share (type): in vivo
One experiment relates to Pyricularia oryzae. The following applies: rice seedling, 6 days after inoculation.
In experiment [1] the target is T1, tachykinin receptor (Cavia porcellus, UniProt P30547).
T1 construct: from tissue; host or cells: guinea pig trachea, in vivo
The experiment is described as follows: Tachykinin receptor antagonistic effect: capsaicin-induced increase in blood vessel permeability, trachea. The following applies: guinea pig, iv, read-out: ED50 Guinea pig trachea. On the procedure:
(§1) The tachykinin receptor antagonistic effect of a compound according to the present invention was investigated by the method described below.
(§2) [Effect of compound on capsaicin-induced increase in blood vessel permeability]
(§3) 5 Minutes after giving Evans Blue (30 mg/kg, i.v.) to a guinea pig anesthetized with pentobarbital (30 mg/kg, i.p.), a test compound dissolved in […] was injected intravenously. After further 5 minutes, capsaicin (0.15 mg/kg, i.v.) was given to induce the plasma transudation. 5 Minutes after administration of capsaicin, the guinea pig was sacrificed to isolate the trachea and the urinary bladder. After extraction with formamide for 24 hours, the dye content in each tissue was quantified on the basis of the absorbance at 620 nm, and the amount of the dye transudated into the tissue was calculated from the calibration curve.
(§4) By the method described above, the amount of the compound required to obtain 50% suppression (ED50) was determined and represented in units (mg/kg).

Experiment [2] has as its target T1, tachykinin receptor. The experiment is described as follows: Tachykinin receptor antagonistic effect: capsaicin-induced increase in blood vessel permeability, urinary bladder. The following applies: guinea pig, iv, read-out: ED50 Guinea pig urinary bladder. The procedure: as §1, §2, §3, §4

The ED50 is the dose at which the effect has come halfway, by size or by number of responders.

T1 sequence (P30547 whole entry): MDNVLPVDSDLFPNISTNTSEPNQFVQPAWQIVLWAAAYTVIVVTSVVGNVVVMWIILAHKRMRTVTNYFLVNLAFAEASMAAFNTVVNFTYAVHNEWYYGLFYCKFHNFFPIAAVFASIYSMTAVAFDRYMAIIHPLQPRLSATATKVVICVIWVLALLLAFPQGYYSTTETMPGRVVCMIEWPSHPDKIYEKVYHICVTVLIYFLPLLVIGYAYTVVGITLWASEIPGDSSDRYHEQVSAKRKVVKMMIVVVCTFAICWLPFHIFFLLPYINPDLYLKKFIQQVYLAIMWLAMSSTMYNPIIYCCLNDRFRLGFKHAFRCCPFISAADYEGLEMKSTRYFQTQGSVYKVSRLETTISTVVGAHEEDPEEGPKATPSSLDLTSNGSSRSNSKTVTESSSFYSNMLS

Take `CON=C(C)C(=NOCc1ccccc1Cl)C(=O)N(C)C` [Compound C-11]: in the experiment with Pyricularia oryzae, the “Controlling effect on rice blight (Pyricularia oryzae) by foliage application at 500 ppm (% control)” value (from here on “Controlling effect on rice blight … (% control)”) amounted to 90%.
`C=CCON=C(C)C(=NOCc1ccccc1Cl)C(=O)N(C)C` [Compound C-86]: the “Controlling effect on rice blight … (% control)” value in the experiment with Pyricularia oryzae was 90%.
Regarding `C=CCON=C(C)C(=NOCc1ccc(OC)cc1Cl)C(=O)N(C)C` [Compound C-95], in the experiment on Pyricularia oryzae, the “Controlling effect on rice blight … (% control)” value is 90%.
Turning to `C=CCON=C(C)C(=NOCc1ccc(Cl)c(Cl)c1)C(=O)N(C)C` [Compound C-96], the “Controlling effect on rice blight … (% control)” value in the experiment on Pyricularia oryzae was determined as 90%.
With `CON=C(C)C(=NOCc1ccccc1Cl)C(=O)N1CCC(NC(C)=O)CC1` [Compound M-11], the ED50 at tachykinin receptor [1] stood at 0.024 mg/kg.
Consider `C=CCON=C(C)C(=NOCc1ccccc1Cl)C(=O)N1CCC(NC(C)=O)CC1` [Compound M-86], for which the ED50 on tachykinin receptor [1] was 0.085 mg/kg.
For the molecule `C=CCON=C(C)C(=NOCc1ccc(Cl)c(Cl)c1)C(=O)N1CCOCC1` [Compound W-96], the ED50 at tachykinin receptor [1] came to 0.04 mg/kg.
Take `CON=C(C(=O)N1CCOCC1)C(C)=NOCc1ccccc1` [Compound W-176]: the ED50 on tachykinin receptor [1] came out at 0.145 mg/kg; at tachykinin receptor [2], 0.075 mg/kg.
In the case of `CON=C(C(=O)N1CCN(C)CC1)C(C)=NOCc1ccccc1Cl` [Compound b-251], the 50% effective dose (ED50) on tachykinin receptor [1] and on tachykinin receptor [2] was 0.017 mg/kg each time.
Take `O=C1OCc2c(Cl)c(Cl)c(Cl)c(Cl)c21` [Fthalide, reference compound]: the “Controlling effect on rice blight … (% control)” value with Pyricularia oryzae came out at 97%.
As for `C=CCON=C(C(=O)N1CCN(C)CC1)C(C)=NOCc1ccccc1` [b-180], the ED50 on tachykinin receptor [1] worked out at 0.054 mg/kg; on tachykinin receptor [2], 0.087 mg/kg.

For the origin of these results see US6251949A, “Oxime derivatives, hydrazone derivatives and use thereof” (Shionogi & Co., Ltd., priority 1996, dated 2001).
